Test results published in PubChem BioAssay (NCI).
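All cell lines were grown in 96-well plates and treated with compound for 48 hours. Abbreviation: GI50, concentration required for 50% inhibition of growth. The concentration for full growth arrest is given as TGI.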

Experiments:
Assay in all cases: growth of human tumour cells (NCI), 48 h
A549 NSCLC = tested on: A549 NSCLC
HCT-116 colon = tested on: HCT-116 colon
MDA-MB-435 = tested on: MDA-MB-435
HT29 colon = tested on: HT29 colon
K-562 leukemia = tested on: K-562 leukemia
NCI/ADR-RES ovarian = tested on: NCI/ADR-RES ovarian
NCI-H460 lung = tested on: NCI-H460 lung
SW-620 colon = tested on: SW-620 colon
HOP-62 NSCLC = tested on: HOP-62 NSCLC
OVCAR-3 ovarian = tested on: OVCAR-3 ovarian
MDA-MB-468 breast = tested on: MDA-MB-468 breast
MCF7 breast = tested on: MCF7 breast
T-47D breast = tested on: T-47D breast
SNB-19 CNS = tested on: SNB-19 CNS
SK-OV-3 ovarian = tested on: SK-OV-3 ovarian
SK-MEL-28 melanoma = tested on: SK-MEL-28 melanoma
786-0 renal = tested on: 786-0 renal
PC-3 prostate = tested on: PC-3 prostate
DU-145 prostate = tested on: DU-145 prostate
MDA-MB-231 breast = tested on: MDA-MB-231 breast
UACC-257 melanoma = tested on: UACC-257 melanoma
HL-60(TB) leukemia = tested on: HL-60(TB) leukemia
ACHN renal = tested on: ACHN renal
CCRF-CEM leukemia = tested on: CCRF-CEM leukemia
BT-549 breast = tested on: BT-549 breast
SNB-75 CNS = tested on: SNB-75 CNS
NCI-H23 lung = tested on: NCI-H23 lung
M14 melanoma = tested on: M14 melanoma
SN12C renal = tested on: SN12C renal
HS 578T breast = tested on: HS 578T breast

Compound: O=C(NO)c1ccc(CNc2nc(-c3ccccc3)c3ccccc3n2)cc1
- GI50 (A549 NSCLC): 3.23 µM
- TGI (A549 NSCLC): > 13.4 µM
- GI50 (HCT-116 colon): 2.04 µM
- TGI (HCT-116 colon): 8.01 µM
- GI50 (MDA-MB-435): 2.4 µM
- TGI (MDA-MB-435): > 9.06 µM
- GI50 (HT29 colon): 2.46 µM
- TGI (HT29 colon): > 23.3 µM
- GI50 (K-562 leukemia): 3.05 µM
- TGI (K-562 leukemia): > 28 µM
- GI50 (NCI/ADR-RES ovarian): 0.159 µM
- TGI (NCI/ADR-RES ovarian): 0.954 µM
- GI50 (NCI-H460 lung): 3.04 µM
- TGI (NCI-H460 lung): > 17.1 µM
- GI50 (SW-620 colon): 2.09 µM
- TGI (SW-620 colon): 5.91 µM
- GI50 (HOP-62 NSCLC): 2.88 µM
- TGI (HOP-62 NSCLC): 12.2 µM
- GI50 (OVCAR-3 ovarian): 2.68 µM
- TGI (OVCAR-3 ovarian): 8.7 µM
- GI50 (MDA-MB-468 breast): 1.49 µM
- TGI (MDA-MB-468 breast): 5.41 µM
- GI50 (MCF7 breast): 3.22 µM
- TGI (MCF7 breast): > 28 µM
- GI50 (T-47D breast): 2.28 µM
- TGI (T-47D breast): 21.7 µM
- GI50 (SNB-19 CNS): 2.83 µM
- TGI (SNB-19 CNS): 9.91 µM
- GI50 (SK-OV-3 ovarian): 2.15 µM
- TGI (SK-OV-3 ovarian): 6.25 µM
- GI50 (SK-MEL-28 melanoma): 2.42 µM
- TGI (SK-MEL-28 melanoma): 8.17 µM
- GI50 (786-0 renal): 2.75 µM
- TGI (786-0 renal): 11.8 µM
- GI50 (PC-3 prostate): 4.84 µM
- TGI (PC-3 prostate): 27.3 µM
- GI50 (DU-145 prostate): 2.78 µM
- TGI (DU-145 prostate): > 28 µM
- GI50 (MDA-MB-231 breast): 2.44 µM
- TGI (MDA-MB-231 breast): 8.22 µM
- GI50 (UACC-257 melanoma): 2.02 µM
- TGI (UACC-257 melanoma): > 16.5 µM
- GI50 (HL-60(TB) leukemia): 3.59 µM
- TGI (HL-60(TB) leukemia): > 28 µM
- GI50 (ACHN renal): 2.05 µM
- TGI (ACHN renal): 5.55 µM
- GI50 (CCRF-CEM leukemia): 2.73 µM
- TGI (CCRF-CEM leukemia): > 28 µM
- GI50 (BT-549 breast): 3.99 µM
- TGI (BT-549 breast): 15.8 µM
- GI50 (SNB-75 CNS): 2.36 µM
- TGI (SNB-75 CNS): > 12 µM
- GI50 (NCI-H23 lung): 2.24 µM
- TGI (NCI-H23 lung): 7.72 µM
- GI50 (M14 melanoma): 3.2 µM
- TGI (M14 melanoma): > 13.5 µM
- GI50 (SN12C renal): 3.09 µM
- TGI (SN12C renal): 12 µM
- GI50 (HS 578T breast): 2.47 µM
